Measurements taken from patent US11690824B2, “Antibacterial compounds” (THE GENERAL HOSPITAL CORPORATION, priority 2018, dated 2023).

Experiments:
[1] = Hepatic and renal toxicities (serum ALT, BUN) in the mouse thigh infection model; settings: 5 days
Protocol: Deep-seated mouse thigh infection model. In vivo efficacy of nTZDpa alone or in combination with gentamicin against MRSA persisters was evaluated by a previously described neutropenic mouse thigh infection model with modifications. Six-week-old female CD-I mice (20-25 g, Charles River Laboratories, Wilmington, Mass., USA) were obtained from Charles River Laboratories (Wilmington, Mass., USA). The CD-I mice were rendered neutropenic by administering 150 mg/kg and 100 mg/kg of cyclophosphamide intraperitoneally (i.p.) at 4 days and 1 day before infection, respectively. On the day of infection, overnight culture of MRSA MVV2 was washed 3-time with sterile saline and diluted to 10^7 CFU/ml in the saline. 50 μl of the diluted culture (5×10^5 CFU per mouse) was injected to the right thigh of each mouse. nTZDpa was dissolved in Kolliphor EL (Sigma-Aldrich, St Louis, Mo., USA)/ethanol 1:1 and then diluted 1:10 in saline to a final concentration of 50 mg/kg. At 24 h post-infection, groups of mice (n=10) were treated with 30 mg/kg gentamicin subcutaneously (s.c.) every 12 h, 25 mg/kg vancomycin i.p. every 24 h, 50 mg/kg nTZPpa i.p. every 24 h, or the combination of 50 mg/kg nTZDpa i.p. every 24 h and 30 mg/kg gentamicin s.c. every 12 h for 5 days. Control mice were injected with 250 μl of 10% Kolliphor EL/ethanol in saline i.p. every 24 h for 5 days. Mice were euthanized at 96 h post-infection. Blood was collected by cardiac puncture, and the infected thighs were aseptically excised, weighed, and stored at 4° C. until homogenization. To evaluate hepatic and renal toxicities, the levels of alanine aminotransferase and blood urea nitrogen were analyzed with commercially available kits, following the manufacturer's protocol (Pointe Scientific, Canton, Mich., USA). Thighs were homogenized in PBS, serially diluted with PBS, and spot-plated on TSA plates. After incubating the TSA plates at 37° C. overnight, the number of colonies were enumerated to calculate CFU/g thigh tissue. This study and all experiments were performed in accordance with guidelines approved by the Rhode Island Hospital Institutional Animal Care and Use Committee (RIH IACUC). Statistical significance among each group was analyzed by one-way ANOVA with post-hoc Tukey test using PASW Statistics 18 (SPSS Inc. Chicago, Ill., USA).

human erythrocytes = assay: Human blood hemolysis; assay type: cell-based
Protocol: Human blood hemolysis. Hemolytic activity was evaluated as described in a previous study. Briefly, 100 μL of 4% human erythrocytes (Rockland Immunochemicals, Limerick, Pa., USA) was added to 100 μL of 2-fold serial dilutions of compounds in PBS, 0.2% DMSO (negative control), or 2% Triton-X 100 (positive control) in a 96-well plate. The 96-well plate was incubated at 37° C. for 1 h and then centrifuged at 500× g for 5 min. 50 μL of the supernatant was transferred to a fresh 96-well plate, and absorbance of supernatants was measured at 540 nm. Percent hemolysis was calculated using the following equation: (A540 nm of compound treated sample−A540 nm of 0.1% DMSO treated sample)/(A540 nm of 1% Triton X-100 treated sample−A540 nm of 0.1% DMSO treated sample)×100. HC50 (concentration of a compound causing 50% hemolysis) was determined using SigmaPlot 10.0 (Systat Software Inc., San Jose, Calif., USA).

[2] = system: exponential-phase MRSA MW2; assay: Killing kinetics assay; assay type: cell-based, S. aureus; settings: 16 μg/ml (4× MIC), ~10^7 CFU/mL
Protocol: Killing kinetics assay. An MRSA MW2 overnight culture was diluted 1:10,000 in 25 mL TSB (˜10^5 CFU/mL) in a 250 mL flask and incubated at 37° C. with shaking at 200 rpm for 4.5 h until it reached exponential-phase (˜2×10^7 CFU/mL). 1 mL of the exponential phase cell culture was mixed with 1 mL of pre-warmed TSB containing twice the desired concentrations of antibiotics in a 96-well assay block (Corning Costar 3960). The assay block was incubated at 37° C. with shaking at 200 rpm. At every hour, 400 μl aliquots were taken, washed once with phosphate buffered saline (PBS), serially diluted and spot-plated onto tryptic soy agar (TSA, BD) plates. After incubation at 37° C. for overnight, colonies were counted to enumerate the number of cells. These experiments were conducted in biological triplicate.

GUVs DOPC/DOPG (7:3) = assay: Giant unilamellar vesicles (GUVs), observation of compound effects; settings: 4 μg/ml (1× MIC)
Protocol: Preparation of giant unilamellar vesicles (GUVs) and observation of compound effects on GUVs. GUVs were prepared by the electroformation method described previously. Dioleoyl-glycero-phosphocholine (DOPC), Dioleoyl-glycero-phosphoglycerol (DOPG) and Dioleoyl-glycero-phosphoethanolamine-N-lissamine rhodamine B sulfonyl (18:1 Liss Rhod PE) were purchased from Avanti Polar Lipids (Alabaster, Ala., USA). 4 mM of a lipid mixture consisting of DOPC/DOPG/18:1 Liss Rhod PE (7:3:0.005) was dissolved in chloroform. Indium tin oxide (ITO)-coated slides (50×75×1.1 mm, Delta Technologies, Loveland, Colo., USA) were coated with 40 μL of the lipid mixture and dried in a vacuum chamber for 2 h to remove chloroform. An electroformation chamber was made by placing a 2 mm thick Teflon spacer between the two lipid-coated ITO slides. After adding 2 mL of 100 mM sucrose into the electrofomation chamber, the chamber was sealed with binder clips, and then connected to an AC field function generator. The swelling of the lipid bilayers was facilitated by applying an electric AC-field (10 Hz). […] GUVs were detached from surfaces by reducing the AC-field from 10 Hz to 5 Hz for 20 min. The GUV suspension was diluted (1:30) in a 100 mM glucose solution. 49 μL of the diluted GUV suspension (˜100 vesicles) was added to a black, clear-bottom 384-well plate (Corning no. 3712). […]

[3] = nTZDpa 50 mg/kg with gentamicin 30 mg/kg

For `O=C(O)c1c(Sc2ccccc2)c2cc(Cl)ccc2n1Cc1ccc(Cl)cc1` [nTZDpa], the BUN [1, 3] was “not increasing ALT or BUN”, the “serum ALT” value [1, 3] was “not increasing ALT or BUN” and the BUN ([1]; nTZDpa alone 50 mg/kg i.p.) was “did not increase serum levels of ALT or BUN”. The “serum ALT” value ([1]; nTZDpa alone 50 mg/kg i.p.) was “did not increase serum levels of ALT or BUN”, the “hemolysis of human erythrocytes” value (human erythrocytes; 32 μg/ml) was less than 25% and the “toxicity to human erythrocytes” value (human erythrocytes; at or below 16 μg/mL) was “did not show significant toxicity”. For the same compound, the “HC50: median hemolytic concentration” value (human erythrocytes; human erythrocytes) was 47 µg/mL, the “time to complete eradication of exponential-phase MRSA MW2” value [2] was no more than 2 h and the “time to formation of lipid aggregates on the surface of GUVs” value (GUVs DOPC/DOPG (7:3)) was 10 s. For the same compound, the “time to rupture of GUVs” value (GUVs DOPC/DOPG (7:3)) was 60 s.
